Data published in patent US9326666B2, “Multi-channel medical imaging system” (Beth Israel Deaconess Medical Center, priority 2002, dated 2016).

Assays:
[1] = system: mitochondria and/or endoplasmic reticulum; assay: Partitioning of dye into subcellular organelles; type: cell-based
Source text: (§1) More generally, IR-786 may be used for non-radioactive imaging of areas of ischemia in the living heart, or other visualization of the viability of other tissues.

[2] = Imaging of blood flow in the heart of a living laboratory rat after thoracotomy; type: in vivo
Source text: as §1

[3] = Solubility of dye in blood; conditions: small molecule form
[4] = In vivo early half-life of dye in blood; conditions: small molecule form
Source text: This permits multiple injections during a single procedure.

| solubility in blood [3] | in vivo early half-life [4] | SMILES | partitioning into mitochondria and/or endoplasmic reticulum [1] | imaging of blood flow in the heart [2] |
| --- | --- | --- | --- | --- |
| – | – | CN1C(=CC=C2CCCC(C=CC3=[N+](C)c4ccccc4C3(C)C)=C2Cl)C(C)(C)c2ccccc21.[O-][Cl+3]([O-])([O-])[O-] [IR-786] | partitions efficiently into mitochondria and/or endoplasmic reticulum in a concentration-dependent manner | successfully applied |
| somewhat less soluble in blood | shorter half-life | CC1(C)C(/C=C/C=C/C=C/C=C2\N(CCCCS(=O)(=O)O)c3ccc4ccccc4c3C2(C)C)=[N+](CCCCS(=O)(=O)[O-])c2ccc3ccccc3c21 [Indocyanine green, indocyanine green] | – | – |
